Test results from patent publication US9234200B2, “Oligonucleotide, glucocorticoid sensitivity enhancer, pharmaceutical composition, and expression vector” (National University Corporation Tokyo University of …, priority 2011, dated 2016).
Where two headings read alike, the source gives them in different places.

How the values were obtained:
Raji cells [1] = test: BrdU incorporation assay, glucocorticoid sensitivity of oligonucleotide-transfected Raji cells; assay type: cell-based, human; settings: for BrdU incorporation: absorbance at 450 nm
Procedure: In order to examine the change of glucocorticoid sensitivity of cells caused by introduction of oligonucleotide 1, cell proliferation was quantified by a 5-bromo-2′-deoxyuridine (BrdU) incorporation assay. Dexamethasone (manufactured by Biomol) was used as a glucocorticoid. The concentration of dexamethasone was set to varied concentrations of 0 μM (no addition), 0.1 μM, 0.5 μM, 1 μM, 5 μM, and 10 μM.
Raji cells were cultured in serum-free RPMI1640 medium for 12 hours to synchronize the cell cycle, and then re-suspended in RPMI1640 medium supplemented with serum and inoculated onto a 96-well plate.
After dexamethasone was added, the cells were cultured for 22 hours. Then, BrdU was added thereto, and the cells were cultured for another 2 hours. After centrifugation, the supernatant was discarded, and the cells were dried and fixed. The fixed cells were allowed to react with a peroxidase-labeled anti-BrdU antibody for 1 hour at room temperature. Subsequently, the cells were washed three times with PBS, and tetramethylbenzidine was added thereto. When noticeable coloring was observed, the reaction was stopped by adding H2SO4 (1M). After vigorous agitation, absorbance at 450 nm was measured using a plate reader.
Using the Raji cells to which dexamethasone was not added as a control, cell proliferation inhibitory rate (%) was calculated based on the relative ratio of the obtained absorbance. Here, statistical significance was assessed with one-way analysis of variance and multiple comparison. Tukey's multiple comparison was used for the multiple comparison. A significance level of P<0.05 (vs. no addition of oligonucleotide) was regarded as a significant difference.
BrdU incorporation assay was performed in the same manner as in the above, and alternation of the glucocorticoid sensitivity of the cells caused by the introduction of any one of oligonucleotides 2 to 5 was examined. Each experiment was carried out in quadruplicate. The values shown in Table 7 are average values thereof.

Raji cells [2] = test: BrdU incorporation assay, glucocorticoid sensitivity of oligonucleotide 4-expressing Raji cells; assay type: cell-based, human; settings: for BrdU incorporation: absorbance
Procedure: In order to examine the glucocorticoid sensitivity of the oligonucleotide 4-expressin Raji cells, BrdU incorporation assay was performed in the same manner as in Example 2, and cell proliferation was quantified. The concentration of dexamethasone was set to 0 μM (no addition) or 5 μM. Each experiment was repeated in triplicate. The values shown in Table 13 are average of thereof.

GRα and GRβ [3] = test: GRα and GRβ expression levels in Raji cells transfected with oligonucleotide (RT-PCR and PCR); assay type: cell-based, human;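 for GAPDH: mean of three independent experiments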
Procedure: Raji cells (manufactured by Japan Health Science Foundation) derived from human Burkitt's lymphoma were used in experiments.
Raji cells were cultured and maintained in RPMI1640 medium (manufactured by Gibco) at 37° C. in an atmosphere of 5% CO2, the RPMI1640 medium being supplemented with 10% fetal bovine serum (FBS) (manufactured by Filtoron), 100 U/ml penicillin, and 100 μg/ml streptomycin.
2×10^6 Raji cells were washed with phosphate-buffered saline (PBS) and suspended in 100 μl transfection reagent of an Amaxa cell line Nucleofector Kit V (manufactured by Lonza).
After the Raji cells were cultured in the above-described medium for 24 hours, the Raji cells were used for subsequent experiments.
The expression level of glyceraldehyde-3-phosphate dehydrogenase (GAPDH) was determined as an endogenous control.
After the Raji cells were washed with PBS, RNA was extracted using a FastPure RNA Kit (manufactured by Takara Bio Inc.), and reverse transcription was performed using a PrimeScript 1st strand cDNA synthesis kit (manufactured by Takara Bio Inc.). The obtained cDNA was amplified using Platinum Taq DNA polymerase (manufactured by Invitrogen) and PCR primers (having the base sequences shown in Table 2) specific for the gene of interest. The PCR conditions included: performing initial denaturation at 94° C. for 2 minutes; performing 35 cycles of denaturation (94° C. for 30 seconds), annealing (55° C. for 30 seconds), and extension (72° C. for 1 minute); and then performing final extension at 72° C. for 4 minutes.
After the PCR was performed, DNA was separated by […] electrophoresis on a 2% agarose gel containing ethidium bromide, and the intensity of bands was quantified using an image analyzer GEL PRINT 2000i/VGA (manufactured by Genomic Solutions).

GRα and GRβ [4] = test: GRα and GRβ expression levels in oligonucleotide 4-expressing Raji cells
[5] = expression level (band intensity), oligonucleotide 300 nM by electroporation, 24 h
[6] = Raji cells constitutively expressing oligonucleotide 4
[7] = expression level (band intensity), Raji cells constitutively expressing oligonucleotide 4 (retrovirus vector)
[8] = expression level (band intensity), Raji cells constitutively expressing oligonucleotide 4 (retrovirus vector), listed as oligonucleotide 4

C[C@@H]1C[C@H]2[C@@H]3CCC4=CC(=O)C=C[C@]4(C)[C@@]3(F)[C@@H](O)C[C@]2(C)[C@@]1(O)C(=O)CO [dexamethasone, reference compound]
inhibition at 0.1 µM (Raji cells [1]; Homo sapiens, Raji, dexamethasone 0.1 μM vs no dexamethasone, triplicate, label dexamethasone = no oligonucleotide introduced, read-out: cell proliferation inhibitory rate): 13.4% | inhibition at 0.1 µM (Raji cells [1]; Homo sapiens, Raji, dexamethasone 0.1 μM, quadruplicate (Table 7), label dexamethasone = no oligonucleotide transfected, read-out: cell proliferation inhibitory rate): 13.2% | inhibition at 0.5 µM (Raji cells [1]; Homo sapiens, Raji, dexamethasone 0.5 μM vs no dexamethasone, triplicate, label dexamethasone = no oligonucleotide introduced, read-out: cell proliferation inhibitory rate): 16.2% | inhibition at 0.5 µM (Raji cells [1]; Homo sapiens, Raji, dexamethasone 0.5 μM, quadruplicate (Table 7), label dexamethasone = no oligonucleotide transfected, read-out: cell proliferation inhibitory rate): 17.6% | inhibition at 1 µM (Raji cells [1]; Homo sapiens, Raji, dexamethasone 1 μM vs no dexamethasone, triplicate, label dexamethasone = no oligonucleotide introduced, read-out: cell proliferation inhibitory rate): 12.6% | inhibition at 1 µM (Raji cells [1]; Homo sapiens, Raji, dexamethasone 1 μM, quadruplicate (Table 7), label dexamethasone = no oligonucleotide transfected, read-out: cell proliferation inhibitory rate): 22.2% | inhibition at 5 µM (Raji cells [1]; Homo sapiens, Raji, dexamethasone 5 μM vs no dexamethasone, triplicate, label dexamethasone = no oligonucleotide introduced, read-out: cell proliferation inhibitory rate): 23.3% | inhibition at 5 µM (Raji cells [1]; Homo sapiens, Raji, dexamethasone 5 μM, quadruplicate (Table 7), label dexamethasone = no oligonucleotide transfected, read-out: cell proliferation inhibitory rate): 21.7% | inhibition at 10 µM (Raji cells [1]; Homo sapiens, Raji, dexamethasone 10 μM vs no dexamethasone, triplicate, label dexamethasone = no oligonucleotide introduced, read-out: cell proliferation inhibitory rate): 23.9% | BrdU incorporation (Raji cells [1]; dexamethasone 0.1 μM, triplicate, label dexamethasone = no oligonucleotide introduced): 0.475 | BrdU incorporation (Raji cells [1]; dexamethasone 0.5 μM, triplicate, label dexamethasone = no oligonucleotide introduced): 0.461 | BrdU incorporation (Raji cells [1]; dexamethasone 1 μM, triplicate, label dexamethasone = no oligonucleotide introduced): 0.479 | BrdU incorporation (Raji cells [1]; dexamethasone 5 μM, triplicate, label dexamethasone = no oligonucleotide introduced): 0.422 | BrdU incorporation (Raji cells [1]; dexamethasone 10 μM, triplicate, label dexamethasone = no oligonucleotide introduced): 0.418 | BrdU incorporation (Raji cells [2]; dexamethasone 5 μM, label dexamethasone = Control Raji cell): 1.07

Oligonucleotide 4: an oligonucleotide having a base sequence represented by SEQ ID NO: 4 (5′-TTTGTCCCCATTATATAGCATTT-3′) (listed as DNA, chemistry not given here)
cell proliferation inhibitory rate (Raji cells [1]; dexamethasone 0.1 μM, quadruplicate (Table 7), label dexamethasone = no oligonucleotide transfected): 12.464% | cell proliferation inhibitory rate (Raji cells [1]; dexamethasone 0.5 μM, quadruplicate (Table 7), label dexamethasone = no oligonucleotide transfected): 23.397% | cell proliferation inhibitory rate (Raji cells [1]; dexamethasone 1 μM, quadruplicate (Table 7), label dexamethasone = no oligonucleotide transfected): 28.863% | cell proliferation inhibitory rate (Raji cells [1]; dexamethasone 5 μM, quadruplicate (Table 7), label dexamethasone = no oligonucleotide transfected): 28.061% | GAPDH (GRα and GRβ [3]; expression level (band intensity), endogenous control, oligonucleotide 300 nM by electroporation, 24 h): 2991.776 | GRα (GRα and GRβ [3]; [5]): 3157.440 | GRβ (GRα and GRβ [3]; [5]): 4592.806 | GRα/GAPDH (GRα and GRβ [3]; oligonucleotide 300 nM): 1.057 | GRβ/GAPDH (GRα and GRβ [3]; oligonucleotide 300 nM): 1.533 | GRα/GAPDH (GRα and GRβ [4]; [6]): 0.747 | GRβ/GAPDH (GRα and GRβ [4]; [6]): 0.290 | GAPDH (GRα and GRβ [4]; expression level (band intensity), endogenous control, Raji cells constitutively expressing oligonucleotide 4 (retrovirus vector)): 6428.135 | GRα (GRα and GRβ [4]; [7]): 4803.456 | GRβ (GRα and GRβ [4]; [7]): 1866.325 | GRα (GRα and GRβ [4]; [8]): increases the expression level of GRα | GRβ (GRα and GRβ [4]; [8]): decreases the expression level of GRβ | BrdU incorporation (Raji cells [2]; oligonucleotide 4-expressing Raji cell, dexamethasone 0 μM): 1.13 | glucocorticoid sensitivity (Raji cells [2]; constitutive expression of oligonucleotide 4 in Raji cells, in words): increases glucocorticoid sensitivity
